Measured values: ChEMBL document CHEMBL4177526, “Discovery and structure activity relationship of the first potent cryptosporidium FIKK kinase inhibitor” (Bioorg Med Chem, 2017)

How the values were obtained:
[1] = target: Protein kinase C alpha type (Homo sapiens) (UniProt P17252); assay: Inhibition of human PKCalpha (1 to 672 residues) assessed as residual activity at 500 nM in presence of 33P-ATP by filter binding assay relative to control
[2] = Inhibition of recombinant Cryptosporidium parvum FIKK using RRRAPSFYRK peptide as substrate by NADH coupled LDH-PK ATPase assay
Cryptosporidium parvum = assay: Selectivity ratio of IC50 for Cryptosporidium parvum CDPK1 to IC50 for recombinant Cryptosporidium parvum FIKK
[3] = target: Mitogen-activated protein kinase kinase kinase kinase 5 (Homo sapiens) (UniProt Q9Y4K4); assay: Inhibition of MAP4K5 (unknown origin) assessed as residual activity at 500 nM relative to control
[4] = target: Serine/threonine-protein kinase MARK2 (Homo sapiens) (UniProt Q7KZI7); assay: Inhibition of human MARK2 (2 to 691 residues) assessed as residual activity at 500 nM in presence of 33P-ATP by filter binding assay relative to control
[5] = target: Dual specificity tyrosine-phosphorylation-regulated kinase 1A (Homo sapiens) (UniProt Q13627); assay: Inhibition of human DYRK1A (1 to 502 residues) assessed as residual activity at 500 nM in presence of 33P-ATP by filter binding assay relative to control
[6] = target: Homeodomain-interacting protein kinase 2 (Homo sapiens) (UniProt Q9H2X6); assay: Inhibition of human HIPK2 (165 to 564 residues) assessed as residual activity at 500 nM in presence of 33P-ATP by filter binding assay relative to control
[7] = target: Serine/threonine-protein kinase PAK 6 (Homo sapiens) (UniProt Q9NQU5); assay: Inhibition of human PAK6 (2 to 681 residues) assessed as residual activity at 500 nM in presence of 33P-ATP by scintillation counting method relative to control
[8] = target: Mitogen-activated protein kinase kinase kinase kinase 3 (Homo sapiens) (UniProt Q8IVH8); assay: Inhibition of human MAP4K3 (1 to 873 residues) assessed as residual activity at 500 nM in presence of 33P-ATP by filter binding assay relative to control
[9] = target: Insulin receptor (Homo sapiens) (UniProt P06213); assay: Inhibition of human IR (1001 to 1382 residues) assessed as residual activity at 500 nM in presence of 33P-ATP by filter binding assay relative to control
Chain of Insulin receptor (Homo sapiens) (P06213 28-758 limits assumed): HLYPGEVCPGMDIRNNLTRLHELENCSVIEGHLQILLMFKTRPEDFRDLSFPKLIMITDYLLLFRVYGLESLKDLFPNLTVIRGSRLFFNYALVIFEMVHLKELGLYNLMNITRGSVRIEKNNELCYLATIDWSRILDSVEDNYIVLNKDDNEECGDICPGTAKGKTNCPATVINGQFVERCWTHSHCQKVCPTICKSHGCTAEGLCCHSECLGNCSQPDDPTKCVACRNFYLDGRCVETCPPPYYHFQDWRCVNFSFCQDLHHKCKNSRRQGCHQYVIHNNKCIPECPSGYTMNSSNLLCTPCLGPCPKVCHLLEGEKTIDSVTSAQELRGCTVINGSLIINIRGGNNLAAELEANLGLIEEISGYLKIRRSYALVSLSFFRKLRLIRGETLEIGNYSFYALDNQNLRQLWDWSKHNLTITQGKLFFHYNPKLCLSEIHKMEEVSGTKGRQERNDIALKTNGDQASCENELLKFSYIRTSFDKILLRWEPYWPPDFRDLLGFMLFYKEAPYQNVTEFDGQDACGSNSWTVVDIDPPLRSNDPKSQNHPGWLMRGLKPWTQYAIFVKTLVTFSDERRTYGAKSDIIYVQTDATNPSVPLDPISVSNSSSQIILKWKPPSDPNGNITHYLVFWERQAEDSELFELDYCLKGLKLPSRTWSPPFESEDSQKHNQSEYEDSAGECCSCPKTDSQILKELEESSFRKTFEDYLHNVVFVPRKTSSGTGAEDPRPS
Chain of Insulin receptor (Homo sapiens) (P06213 763-1382 limits assumed): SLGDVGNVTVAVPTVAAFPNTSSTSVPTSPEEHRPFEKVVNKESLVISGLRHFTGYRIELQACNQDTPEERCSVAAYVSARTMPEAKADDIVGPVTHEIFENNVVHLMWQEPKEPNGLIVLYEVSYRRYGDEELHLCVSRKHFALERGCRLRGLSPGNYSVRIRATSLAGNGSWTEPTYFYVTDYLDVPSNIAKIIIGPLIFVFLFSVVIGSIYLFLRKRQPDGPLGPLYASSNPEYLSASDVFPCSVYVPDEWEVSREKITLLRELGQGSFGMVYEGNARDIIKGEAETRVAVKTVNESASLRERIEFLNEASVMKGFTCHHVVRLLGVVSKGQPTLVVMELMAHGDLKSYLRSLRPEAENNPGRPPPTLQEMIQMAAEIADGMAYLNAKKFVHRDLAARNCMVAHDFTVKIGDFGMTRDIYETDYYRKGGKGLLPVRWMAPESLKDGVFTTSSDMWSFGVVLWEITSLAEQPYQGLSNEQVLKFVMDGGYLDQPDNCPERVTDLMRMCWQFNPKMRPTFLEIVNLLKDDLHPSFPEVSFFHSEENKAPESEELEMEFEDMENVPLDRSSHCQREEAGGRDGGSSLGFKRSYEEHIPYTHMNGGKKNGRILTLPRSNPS

[10] = target: Casein kinase I isoform gamma-2 (Homo sapiens) (UniProt P78368); assay: Inhibition of human CK1gamma2 (1 to 415 residues) assessed as residual activity at 500 nM in presence of 33P-ATP by filter binding assay relative to control
[11] = target: Glycogen synthase kinase-3 beta (Homo sapiens) (UniProt P49841); assay: Inhibition of human GSK3beta (2 to 420 residues) assessed as residual activity at 500 nM in presence of 33P-ATP by filter binding assay relative to control
[12] = target: SRSF protein kinase 1 (Homo sapiens) (UniProt Q96SB4); assay: Inhibition of human SRPK1 (2 to 654 residues) assessed as residual activity at 500 nM in presence of 33P-ATP by filter binding assay relative to control
[13] = target: Interleukin-1 receptor-associated kinase 1 (Homo sapiens) (UniProt P51617); assay: Inhibition of human IRAK1 (1 to 712 residues) assessed as residual activity at 500 nM in presence of 33P-ATP by filter binding assay relative to control
[14] = target: Dual specificity tyrosine-phosphorylation-regulated kinase 3 (Homo sapiens) (UniProt O43781); assay: Inhibition of human DYRK3 (1 to 588 residues) assessed as residual activity at 500 nM in presence of 33P-ATP by filter binding assay relative to control
[15] = target: Serine/threonine-protein kinase PAK 4 (Homo sapiens) (UniProt O96013); assay: Inhibition of human PAK4 (2 to 591 residues) assessed as residual activity at 500 nM in presence of 33P-ATP by filter binding assay relative to control
[16] = target: Serine/threonine-protein kinase Nek2 (Homo sapiens) (UniProt P51955); assay: Inhibition of human NEK2A (1 to 445 residues) assessed as residual activity at 500 nM in presence of 33P-ATP by filter binding assay relative to control
Chain of Serine/threonine-protein kinase Nek2 (Homo sapiens) (P51955 whole entry, the tested form may be a part): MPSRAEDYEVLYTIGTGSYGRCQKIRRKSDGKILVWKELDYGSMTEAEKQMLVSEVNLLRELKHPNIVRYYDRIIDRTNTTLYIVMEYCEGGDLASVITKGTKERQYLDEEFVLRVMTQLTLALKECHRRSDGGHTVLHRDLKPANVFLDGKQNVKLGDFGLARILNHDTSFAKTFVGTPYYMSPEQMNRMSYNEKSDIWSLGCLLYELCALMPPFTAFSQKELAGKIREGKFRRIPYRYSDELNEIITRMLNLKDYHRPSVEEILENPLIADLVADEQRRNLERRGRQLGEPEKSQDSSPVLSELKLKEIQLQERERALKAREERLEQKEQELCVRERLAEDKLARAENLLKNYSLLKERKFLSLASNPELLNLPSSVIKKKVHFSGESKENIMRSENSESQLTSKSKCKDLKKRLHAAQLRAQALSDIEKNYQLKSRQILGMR

[17] = target: Mitogen-activated protein kinase kinase kinase 11 (Homo sapiens) (UniProt Q16584); assay: Inhibition of human MLK3 (96 to 386 residues) assessed as residual activity at 500 nM in presence of 33P-ATP by filter binding assay relative to control
[18] = target: MAP kinase-interacting serine/threonine-protein kinase 2 (Homo sapiens) (UniProt Q9HBH9); assay: Inhibition of human MNK2alpha (2 to 465 residues) assessed as residual activity at 500 nM in presence of 33P-ATP by filter binding assay relative to control
[19] = target: High affinity nerve growth factor receptor (Homo sapiens) (UniProt P04629); assay: Inhibition of human TRKA (441 to 760 residues) assessed as residual activity at 500 nM in presence of 33P-ATP by filter binding assay relative to control
Chain of High affinity nerve growth factor receptor (Homo sapiens) (P04629 33-796 limits assumed): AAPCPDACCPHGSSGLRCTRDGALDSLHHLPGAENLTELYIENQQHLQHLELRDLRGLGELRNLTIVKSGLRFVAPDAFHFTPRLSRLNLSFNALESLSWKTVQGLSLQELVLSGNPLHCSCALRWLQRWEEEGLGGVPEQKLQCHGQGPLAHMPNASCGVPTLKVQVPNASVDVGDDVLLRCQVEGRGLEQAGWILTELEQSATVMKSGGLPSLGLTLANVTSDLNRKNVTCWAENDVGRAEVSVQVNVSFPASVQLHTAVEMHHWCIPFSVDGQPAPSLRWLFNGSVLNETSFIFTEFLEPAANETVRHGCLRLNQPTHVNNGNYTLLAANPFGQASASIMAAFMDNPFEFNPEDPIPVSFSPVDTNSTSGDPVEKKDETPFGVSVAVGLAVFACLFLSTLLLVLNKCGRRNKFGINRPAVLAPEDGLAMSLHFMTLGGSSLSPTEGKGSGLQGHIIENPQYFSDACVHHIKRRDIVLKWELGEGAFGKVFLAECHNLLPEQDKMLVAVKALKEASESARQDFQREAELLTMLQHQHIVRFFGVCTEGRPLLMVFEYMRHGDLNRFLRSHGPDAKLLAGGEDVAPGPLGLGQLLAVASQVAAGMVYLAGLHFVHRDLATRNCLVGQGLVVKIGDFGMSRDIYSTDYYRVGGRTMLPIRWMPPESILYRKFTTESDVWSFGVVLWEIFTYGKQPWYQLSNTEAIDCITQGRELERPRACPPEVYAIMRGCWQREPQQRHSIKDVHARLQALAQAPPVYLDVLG

[20] = target: Discoidin domain-containing receptor 2 (Homo sapiens) (UniProt Q16832); assay: Inhibition of human DDR2 (467 to 854 residues) assessed as residual activity at 500 nM in presence of 33P-ATP by filter binding assay relative to control
Chain of Discoidin domain-containing receptor 2 (Homo sapiens) (Q16832 whole entry, the tested form may be a part): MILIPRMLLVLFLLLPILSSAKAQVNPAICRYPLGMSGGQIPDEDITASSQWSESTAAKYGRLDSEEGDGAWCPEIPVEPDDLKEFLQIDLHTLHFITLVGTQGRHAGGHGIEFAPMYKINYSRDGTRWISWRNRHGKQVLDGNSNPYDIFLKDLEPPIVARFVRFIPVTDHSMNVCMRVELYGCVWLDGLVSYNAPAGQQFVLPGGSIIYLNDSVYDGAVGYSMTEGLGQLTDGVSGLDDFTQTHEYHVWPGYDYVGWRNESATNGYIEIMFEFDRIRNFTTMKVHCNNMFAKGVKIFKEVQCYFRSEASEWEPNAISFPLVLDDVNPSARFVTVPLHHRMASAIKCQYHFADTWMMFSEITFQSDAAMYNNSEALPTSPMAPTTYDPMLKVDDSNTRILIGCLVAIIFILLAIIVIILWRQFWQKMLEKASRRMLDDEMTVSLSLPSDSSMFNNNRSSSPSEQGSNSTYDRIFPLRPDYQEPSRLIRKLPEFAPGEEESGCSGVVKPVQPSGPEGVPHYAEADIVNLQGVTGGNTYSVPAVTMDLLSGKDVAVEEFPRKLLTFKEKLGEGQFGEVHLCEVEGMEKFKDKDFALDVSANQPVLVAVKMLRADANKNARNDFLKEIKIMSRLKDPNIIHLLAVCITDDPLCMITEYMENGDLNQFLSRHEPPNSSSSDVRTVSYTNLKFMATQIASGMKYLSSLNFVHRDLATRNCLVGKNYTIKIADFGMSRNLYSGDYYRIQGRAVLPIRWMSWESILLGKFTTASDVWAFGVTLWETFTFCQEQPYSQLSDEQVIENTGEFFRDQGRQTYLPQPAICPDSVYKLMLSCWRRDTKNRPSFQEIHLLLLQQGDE

[21] = target: Serine/threonine-protein kinase BRSK2 (Homo sapiens) (UniProt Q8IWQ3); assay: Inhibition of human BRSK2 (2 to 674 residues) assessed as residual activity at 500 nM in presence of 33P-ATP by filter binding assay relative to control
[22] = target: Mitogen-activated protein kinase 1 (Homo sapiens) (UniProt P28482); assay: Inhibition of human ERK2 (2 to 360 residues) assessed as residual activity at 500 nM in presence of 33P-ATP by filter binding assay relative to control
[23] = target: Mitogen-activated protein kinase 14 (Homo sapiens) (UniProt Q16539); assay: Inhibition of human p38alpha (1 to 360 residues) assessed as residual activity at 500 nM in presence of 33P-ATP by filter binding assay relative to control
[24] = Efflux ratio of permeability in human Caco2 cells; type: ADME, cell-based; conditions: Caco-2
[25] = target: serine/threonine-protein kinase D1 (Homo sapiens) (UniProt Q15139); assay: Inhibition of human PKD1 (2 to 912 residues) at 500 nM in presence of 33P-ATP by filter binding assay relative to control
Chain of serine/threonine-protein kinase D1 (Homo sapiens) (Q15139 whole entry, looked up, the tested form may be a part): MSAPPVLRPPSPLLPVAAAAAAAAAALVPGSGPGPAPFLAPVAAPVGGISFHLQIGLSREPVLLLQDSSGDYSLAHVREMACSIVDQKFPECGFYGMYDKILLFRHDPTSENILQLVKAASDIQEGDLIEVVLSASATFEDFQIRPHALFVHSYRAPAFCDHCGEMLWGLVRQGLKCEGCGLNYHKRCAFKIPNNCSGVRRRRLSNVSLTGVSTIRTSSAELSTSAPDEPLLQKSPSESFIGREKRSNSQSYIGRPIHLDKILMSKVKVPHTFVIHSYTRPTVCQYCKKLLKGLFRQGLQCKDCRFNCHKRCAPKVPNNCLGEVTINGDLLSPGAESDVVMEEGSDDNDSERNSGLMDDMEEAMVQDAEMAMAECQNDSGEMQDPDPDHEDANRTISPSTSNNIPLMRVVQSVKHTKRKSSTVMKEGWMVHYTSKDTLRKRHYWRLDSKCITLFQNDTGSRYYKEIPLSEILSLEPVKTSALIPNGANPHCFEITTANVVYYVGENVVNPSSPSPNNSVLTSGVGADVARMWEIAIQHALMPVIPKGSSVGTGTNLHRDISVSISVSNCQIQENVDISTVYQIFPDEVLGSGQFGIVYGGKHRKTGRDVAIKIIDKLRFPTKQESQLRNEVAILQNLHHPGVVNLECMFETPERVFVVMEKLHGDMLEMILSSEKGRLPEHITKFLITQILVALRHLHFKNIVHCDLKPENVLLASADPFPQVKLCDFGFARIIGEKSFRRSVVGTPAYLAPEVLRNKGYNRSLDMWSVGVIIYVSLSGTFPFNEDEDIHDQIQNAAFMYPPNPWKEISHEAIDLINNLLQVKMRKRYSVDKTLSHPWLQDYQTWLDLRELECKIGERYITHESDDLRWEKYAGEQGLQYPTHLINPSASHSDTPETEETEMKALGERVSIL

[26] = target: serine/threonine-protein kinase D1 (Homo sapiens) (UniProt Q15139); assay: Inhibition of human PKD1 (2 to 912 residues) assessed as residual activity at 500 nM in presence of 33P-ATP by filter binding assay relative to control

Activity [1]: 112%
IC50 [2]: 0.2 nM
Ratio IC50 (Cryptosporidium parvum): 940
Activity [3]: 148%
Activity [4]: 134%
Activity [5]: 132%
Activity [6]: 131%
Activity [7]: 119%
Activity [8]: 118%
Activity [9]: 115%
Activity [10]: 113%
Activity [11]: 112%
Activity [12]: 112%
Activity [13]: 109%
Activity [14]: 109%
Activity [15]: 106%
Activity [16]: 102%
Activity [17]: 101%
Activity [18]: 98%
Activity [19]: 97%
Activity [20]: 91%
Activity [21]: 89%
Activity [22]: 80%
Activity [23]: 9%
efflux ratio [24]: < 1
inhibition [25]: 91%
Activity [26]: 9%
Structure (SMILES): Cc1cccc(-c2nc(N)sc2-c2ccc3ncccc3n2)c1
